The target in the test is T1, glucocerebrosidase (Gcase) (Homo sapiens, UniProt P04062).
T1 construct: micellar solution containing 10 nM GCase and 100 nM saposin C
T1 sequence (P04062 40-536): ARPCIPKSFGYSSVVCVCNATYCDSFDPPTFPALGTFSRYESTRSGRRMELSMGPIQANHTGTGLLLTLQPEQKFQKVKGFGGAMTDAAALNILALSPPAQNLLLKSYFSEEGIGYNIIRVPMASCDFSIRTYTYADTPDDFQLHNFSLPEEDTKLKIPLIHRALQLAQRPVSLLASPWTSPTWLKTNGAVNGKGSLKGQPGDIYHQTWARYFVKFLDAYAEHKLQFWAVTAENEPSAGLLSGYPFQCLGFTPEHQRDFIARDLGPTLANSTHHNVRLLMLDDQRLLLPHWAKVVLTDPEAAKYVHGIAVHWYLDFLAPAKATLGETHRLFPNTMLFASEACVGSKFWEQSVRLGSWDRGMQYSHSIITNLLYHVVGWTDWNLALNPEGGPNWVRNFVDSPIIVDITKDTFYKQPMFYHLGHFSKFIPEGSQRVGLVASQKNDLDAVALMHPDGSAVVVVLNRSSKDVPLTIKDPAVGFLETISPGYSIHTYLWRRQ
As to the kind of experiment: Glucocerebrosidase (Gcase) activation assay with 4-methylumbelliferyl-beta-D-glucopyranoside substrate, saposin C and phosphatidylserine/triton micelles, fluorescence readout. It counts as biochemical. The gist of the method:
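10 nM GCase with 100 nM saposin C pre-incubated 30 min with compound in pH 4.7 phosphate/citrate PS/triton micelles, then mixed 1:1 with 2 mM 4-methylumbelliferyl-β-glucoside micellar substrate (stock level). Run 15 min at room temperature, stopped at pH 12.5; fluorescence 365/440 nm. Screened at 1.0 and 0.1 μM; 8-point curves from 5 μM.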

Each structure is given as a SMILES string.

As for `Cc1cc(-c2ccc(F)o2)nc2c(C(=O)N[C@H](C)C(F)(F)F)cnn12` [III-334], the “Percent Gcase Activation, 0.1 μM Test Compound” value is listed as “*** (greater than 20% Gcase activation)” and the “Percent Gcase Activation, 1 μM Test Compound” value was “+++ (Gcase activation greater than 60%)”.

As for `Cc1cc(-c2ccoc2F)nc2c(C(=O)N[C@H](C)C(F)(F)F)cnn12` [III-335], the “Percent Gcase Activation, 0.1 μM Test Compound” value is on record as “*** (greater than 20% Gcase activation)” and the “Percent Gcase Activation, 1 μM Test Compound” value was “+++ (Gcase activation greater than 60%)”.

`Cc1cocc1-c1cc(C)n2ncc(C(=O)N[C@H](C)C(F)(F)F)c2n1` [III-336]: the “Percent Gcase Activation, 0.1 μM Test Compound” value was “*** (greater than 20% Gcase activation)” and the “Percent Gcase Activation, 1 μM Test Compound” value was “+++ (Gcase activation greater than 60%)”.

Turning to `Cc1cc(-c2ccoc2)nc2c(C(=O)N[C@H](C)C(F)(F)F)cnn12` [III-337], the “Percent Gcase Activation, 0.1 μM Test Compound” value is recorded as “*** (greater than 20% Gcase activation)” and the “Percent Gcase Activation, 1 μM Test Compound” value was “+++ (Gcase activation greater than 60%)”.

`Cc1cc(-c2cc(C)n3ncc(C(=O)N[C@H](C)C(F)(F)F)c3n2)co1` [III-338]: the “Percent Gcase Activation, 0.1 μM Test Compound” value was “*** (greater than 20% Gcase activation)” and the “Percent Gcase Activation, 1 μM Test Compound” value was “+++ (Gcase activation greater than 60%)”.

For `Cc1cc(-c2cc(C)n3ncc(C(=O)N[C@@H](C)C(F)(F)F)c3n2)co1` [III-339], the “Percent Gcase Activation, 0.1 μM Test Compound” value is given as “*** (greater than 20% Gcase activation)” and the “Percent Gcase Activation, 1 μM Test Compound” value is on record as “+++ (Gcase activation greater than 60%)”.

For the molecule `Cc1occc1-c1cc(C)n2ncc(C(=O)N[C@H](C)C(F)(F)F)c2n1` [III-340], the “Percent Gcase Activation, 0.1 μM Test Compound” value was “*** (greater than 20% Gcase activation)” and the “Percent Gcase Activation, 1 μM Test Compound” value is listed as “+++ (Gcase activation greater than 60%)”.

Consider `Cc1cc(-c2cc(C)n3ncc(C(=O)N[C@H](C4CC4)C(F)(F)F)c3n2)no1` [III-341], for which the “Percent Gcase Activation, 0.1 μM Test Compound” value is given as “*** (greater than 20% Gcase activation)” and the “Percent Gcase Activation, 1 μM Test Compound” value is reported as “+++ (Gcase activation greater than 60%)”.

Turning to `Cc1conc1-c1cc(C)n2ncc(C(=O)N[C@H](C3CC3)C(F)(F)F)c2n1` [III-342], the “Percent Gcase Activation, 0.1 μM Test Compound” value is reported as “*** (greater than 20% Gcase activation)” and the “Percent Gcase Activation, 1 μM Test Compound” value is reported as “+++ (Gcase activation greater than 60%)”.

In the case of `Cc1cc(-c2cc(C)n3ncc(C(=O)N[C@H](C4CC4)C(F)(F)F)c3n2)on1` [III-343], the “Percent Gcase Activation, 0.1 μM Test Compound” value is “*** (greater than 20% Gcase activation)” and the “Percent Gcase Activation, 1 μM Test Compound” value is recorded as “+++ (Gcase activation greater than 60%)”.

For `Cc1cnoc1-c1cc(C)n2ncc(C(=O)N[C@H](C3CC3)C(F)(F)F)c2n1` [III-344], the “Percent Gcase Activation, 0.1 μM Test Compound” value is on record as “*** (greater than 20% Gcase activation)” and the “Percent Gcase Activation, 1 μM Test Compound” value is “+++ (Gcase activation greater than 60%)”.

Take `Cc1nc(-c2cc(C)n3ncc(C(=O)N[C@H](C)C(F)(F)F)c3n2)oc1C` [III-345]: the “Percent Gcase Activation, 0.1 μM Test Compound” value is on record as “** (Gcase activation in the range of 10% up to 20%)” and the “Percent Gcase Activation, 1 μM Test Compound” value is “+++ (Gcase activation greater than 60%)”.

In the case of `Cc1cc(-c2cc(C)n3ncc(C(=O)N[C@@H](C)C4CC4)c3n2)sn1` [III-346], the “Percent Gcase Activation, 0.1 μM Test Compound” value is given as “** (Gcase activation in the range of 10% up to 20%)” and the “Percent Gcase Activation, 1 μM Test Compound” value is “+++ (Gcase activation greater than 60%)”.

In the case of `Cc1cc(C#N)c(-c2cc(C)n3ncc(C(=O)N[C@H](C)C(F)(F)F)c3n2)s1` [III-347], the “Percent Gcase Activation, 0.1 μM Test Compound” value is “*** (greater than 20% Gcase activation)” and the “Percent Gcase Activation, 1 μM Test Compound” value was “+++ (Gcase activation greater than 60%)”.

`Cc1cc(C#N)c(-c2cc(C)n3ncc(C(=O)N[C@@H](C)C(F)(F)F)c3n2)s1` [III-348]: the “Percent Gcase Activation, 0.1 μM Test Compound” value is “*** (greater than 20% Gcase activation)” and the “Percent Gcase Activation, 1 μM Test Compound” value is “+++ (Gcase activation greater than 60%)”.

Consider `Cc1cc(-c2cc(F)ccc2C#N)nc2c(C(=O)N[C@H](C)C(F)(F)F)cnn12` [III-349], for which the “Percent Gcase Activation, 0.1 μM Test Compound” value is reported as “*** (greater than 20% Gcase activation)” and the “Percent Gcase Activation, 1 μM Test Compound” value is on record as “++ (Gcase activation in the range of 30% up to 60%)”.

In the case of `Cc1cc(-c2cc(F)ccc2C#N)nc2c(C(=O)N[C@@H](C)C(F)(F)F)cnn12` [III-350], the “Percent Gcase Activation, 0.1 μM Test Compound” value is on record as “*** (greater than 20% Gcase activation)” and the “Percent Gcase Activation, 1 μM Test Compound” value is reported as “+++ (Gcase activation greater than 60%)”.

On to `Cc1cc(-c2cc(C#N)ccc2F)nc2c(C(=O)N[C@H](C)C(F)(F)F)cnn12` [III-351], for which the “Percent Gcase Activation, 0.1 μM Test Compound” value is “** (Gcase activation in the range of 10% up to 20%)” and the “Percent Gcase Activation, 1 μM Test Compound” value is reported as “+++ (Gcase activation greater than 60%)”.

Take `Cc1cc(-c2cc(C#N)ccc2F)nc2c(C(=O)N[C@@H](C)C(F)(F)F)cnn12` [III-352]: the “Percent Gcase Activation, 0.1 μM Test Compound” value was “** (Gcase activation in the range of 10% up to 20%)” and the “Percent Gcase Activation, 1 μM Test Compound” value is given as “+++ (Gcase activation greater than 60%)”.

`Cc1cc(-c2cnccc2C(F)(F)F)nc2c(C(=O)N[C@H](C3CC3)C(F)(F)F)cnn12` [III-353]: the “Percent Gcase Activation, 0.1 μM Test Compound” value is “*** (greater than 20% Gcase activation)” and the “Percent Gcase Activation, 1 μM Test Compound” value is recorded as “+++ (Gcase activation greater than 60%)”.

As to `Cc1cc(-c2cnccc2C(F)(F)F)nc2c(C(=O)N[C@@H](C3CC3)C(F)(F)F)cnn12` [III-354], the “Percent Gcase Activation, 0.1 μM Test Compound” value is recorded as “*** (greater than 20% Gcase activation)” and the “Percent Gcase Activation, 1 μM Test Compound” value was “+++ (Gcase activation greater than 60%)”.

On to `Cc1cc(-c2cccnc2C(F)(F)F)nc2c(C(=O)N[C@H](C3CC3)C(F)(F)F)cnn12` [III-355], for which the “Percent Gcase Activation, 0.1 μM Test Compound” value is recorded as “*** (greater than 20% Gcase activation)” and the “Percent Gcase Activation, 1 μM Test Compound” value is given as “+++ (Gcase activation greater than 60%)”.

Take `Cc1cc(-c2cccnc2C(F)(F)F)nc2c(C(=O)N[C@@H](C3CC3)C(F)(F)F)cnn12` [III-356]: the “Percent Gcase Activation, 0.1 μM Test Compound” value is reported as “*** (greater than 20% Gcase activation)” and the “Percent Gcase Activation, 1 μM Test Compound” value is on record as “+++ (Gcase activation greater than 60%)”.

Take `Cc1cc(N2CC(C)(C)N(C)C2=O)nc2c(C(=O)N[C@H](C3CC3)C(F)(F)F)cnn12` [III-357]: the “Percent Gcase Activation, 0.1 μM Test Compound” value is “** (Gcase activation in the range of 10% up to 20%)” and the “Percent Gcase Activation, 1 μM Test Compound” value is “+++ (Gcase activation greater than 60%)”.

Take `Cc1cc(N2CC(C)(C)OC2=O)nc2c(C(=O)N[C@H](C3CC3)C(F)(F)F)cnn12` [III-358]: the “Percent Gcase Activation, 0.1 μM Test Compound” value is reported as “* (less than 10% Gcase activation)” and the “Percent Gcase Activation, 1 μM Test Compound” value is given as “++ (Gcase activation in the range of 30% up to 60%)”.

Turning to `Cc1cc(-c2ccc(F)cc2)nc2c(C(=O)N[C@H](C)C(F)(F)F)cnn12` [III-359], the “Percent Gcase Activation, 0.1 μM Test Compound” value was “** (Gcase activation in the range of 10% up to 20%)” and the “Percent Gcase Activation, 1 μM Test Compound” value is recorded as “+++ (Gcase activation greater than 60%)”.

Turning to `Cc1cc(-c2ccc(F)cc2)nc2c(C(=O)N[C@@H](C)C(F)(F)F)cnn12` [III-360], the “Percent Gcase Activation, 0.1 μM Test Compound” value is given as “*** (greater than 20% Gcase activation)” and the “Percent Gcase Activation, 1 μM Test Compound” value is “+++ (Gcase activation greater than 60%)”.

`Cc1cc(-c2cccc(F)c2)nc2c(C(=O)N[C@H](C)C(F)(F)F)cnn12` [III-361]: the “Percent Gcase Activation, 0.1 μM Test Compound” value is on record as “*** (greater than 20% Gcase activation)” and the “Percent Gcase Activation, 1 μM Test Compound” value is on record as “+++ (Gcase activation greater than 60%)”.

As to `Cc1cc(-c2cccc(F)c2)nc2c(C(=O)N[C@@H](C)C(F)(F)F)cnn12` [III-362], the “Percent Gcase Activation, 0.1 μM Test Compound” value is on record as “*** (greater than 20% Gcase activation)” and the “Percent Gcase Activation, 1 μM Test Compound” value is “+++ (Gcase activation greater than 60%)”.

`Cc1cc(-c2cncc(C#N)c2)nc2c(C(=O)N[C@H](C3CC3)C(F)(F)F)cnn12` [III-363]: the “Percent Gcase Activation, 0.1 μM Test Compound” value was “*** (greater than 20% Gcase activation)” and the “Percent Gcase Activation, 1 μM Test Compound” value was “+++ (Gcase activation greater than 60%)”.

Regarding `Cc1cc(-c2cncc(C#N)c2)nc2c(C(=O)N[C@@H](C3CC3)C(F)(F)F)cnn12` [III-364], the “Percent Gcase Activation, 0.1 μM Test Compound” value is on record as “** (Gcase activation in the range of 10% up to 20%)” and the “Percent Gcase Activation, 1 μM Test Compound” value was “+++ (Gcase activation greater than 60%)”.

Take `Cc1cc(-c2cccnc2C#N)nc2c(C(=O)N[C@H](C3CC3)C(F)(F)F)cnn12` [III-365]: the “Percent Gcase Activation, 0.1 μM Test Compound” value is on record as “** (Gcase activation in the range of 10% up to 20%)” and the “Percent Gcase Activation, 1 μM Test Compound” value is “+++ (Gcase activation greater than 60%)”.

In the case of `Cc1cc(-c2cccnc2C#N)nc2c(C(=O)N[C@@H](C3CC3)C(F)(F)F)cnn12` [III-366], the “Percent Gcase Activation, 0.1 μM Test Compound” value is listed as “*** (greater than 20% Gcase activation)” and the “Percent Gcase Activation, 1 μM Test Compound” value is listed as “+++ (Gcase activation greater than 60%)”.

For the origin of these results see patent US10934298B2, “Substituted pyrazolo[1,5-a]pyrimidines for the treatment of medical disorders” (BIAL—BioTech Investments, Inc., priority 2016, dated 2021).
